{
  "source": "patent US10464890B2",
  "about": "“PGAM1 inhibitors and methods related thereto” (Emory University, priority 2011, dated 2019)",
  "key": {"[1]": {"target": "T1, PGAM1 in leukemia KG1a cells (Homo sapiens, UniProt P18669)", "T1 construct": "endogenous in cells; host or cells: KG1a leukemia cells; H1299 lung cancer cells", "T1 sequence (P18669 whole entry)": "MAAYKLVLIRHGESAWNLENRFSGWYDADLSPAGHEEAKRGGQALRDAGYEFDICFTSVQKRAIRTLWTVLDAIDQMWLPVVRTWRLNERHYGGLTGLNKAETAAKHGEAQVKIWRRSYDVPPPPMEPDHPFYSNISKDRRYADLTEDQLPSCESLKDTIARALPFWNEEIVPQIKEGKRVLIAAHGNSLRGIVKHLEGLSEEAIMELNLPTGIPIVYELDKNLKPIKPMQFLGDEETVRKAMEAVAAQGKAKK", "experiment": "PGAM1 inhibition in leukemia KG1a cells", "type": "cell-based", "conditions": "leukemia KG1a cells (2h); compared to alizarin, alizarin Red S, PGMI-001A"}, "H1299 cells": {"system": "H1299 cells", "experiment": "Cellular 2-PG and 3-PG measurement", "type": "cell-based, human", "description": "Cellular metabolites were extracted and spectrophotometrically measured as described previously with some modifications. To determine cellular concentration of 2-PG and 3-PG, 100 μL of packed cell pellets were homogenized in 1.5 ml of hypotonic lysis buffer (20 mM HEPES (pH 7.0), 5 mM KCl, 1 mM MgCl2, 5 mM DTT, and protease inhibitor cocktail). The homogenates were centrifuged in a cold room at 4° C. for 10 minutes at maximum speed, and the supernatants were applied to Amicon Ultra tubes with 10KDa cut off filter (Millipore). The flow through containing the metabolites was used for the measurement. NADH, ADP, and MgCl2 were added to the flow through to final concentrations of 0.14 mM, 1 mM, and 50 mM, respectively. Recombinant LDH and PKM1 proteins were added to final concentrations of 5 μg/ml and 10 μg/ml, respectively. Recombinant enolase protein was added to a final concentration of 50 μg/ml to measure cellular 2-PG. Once the reaction was initiated by enolase, a decrease in absorbance at 340 nm from NADH oxidation was measured by a DU800 spectrophotometer (Beckman). After termination of the enolase reaction, recombinant PGAM1 protein was added to a final concentration of 25 μg/ml and the decrease in absorbance at 340 nm was immediately monitored to measure cellular 3-PG. 100 μL of 2-PG and 3-PG (Sigma) diluted with 1.5 ml of hypotonic lysis buffer were used as the standards.\nAlternatively, perchloric acid was used to quench metabolism and the acid extracts from H1299 cell lysates were then neutralized with KOH (DeBerardinis et al., 2007), followed by enzymatic reactions using the final supernatant to determine the 3-PG and 2-PG levels. An isotope-ratio based detection method was used to determine intracellular 3-PG and 2-PG levels in cells. In brief, pure standards were derivatized with a trimethylsilyl donor (Tri-Sil, Pierce) and used to determine the retention times of 2-PG and 3-PG on GC/MS. These standards were also used to identify parent ions containing all three 2-PG and 3-PG carbons on the derivatized molecule (m/z 459 for both 2-PG and 3-PG), and to generate algorithms for natural isotope abundance correction. Next, two dishes of H1299 cells were cultured in RPMI supplemented with [U-^13C]glucose so that approximately 25% of the total glucose pool was labeled. After 6 hours of culture, the cells were quickly rinsed in ice-cold normal saline, lysed in 1 mL of cold 50% methanol, and frozen in liquid nitrogen. […] The second sample was spiked with 25 nmoles of unlabeled 2-PG and 3-PG, derivatized, and analyzed by GC/MS. […] Assuming a 100 μL volume for the cell pellet, these figures correlate to intracellular concentrations of 66 μM for 2-PG and 81 μM for 3-PG, very close to the values measured by the enzymatic assay."}, "[2]": {"experiment": "Toxicity studies in nude mice", "type": "in vivo", "description": "Peripheral blood samples were collected and applied for analysis of hematological properties. The vital organs were collected for histo-pathological analysis. […] Images were analyzed and captured using ImageScope software (Aperio Technologies Inc.) without any additional or subsequent image processing (high power images are 20×; low power images are either 4.0×, 4.2×, or 4.4×). Scale bars are indicated.\nAn in vivo drug treatment experiment was performed. […] Xenograft experiments were performed by injecting H1299 cells to nude mice."}, "[3]": {"system": "H1299 cells with stable knockdown of PGAM1", "experiment": "14C-serine synthesis assay", "type": "cell-based, human", "conditions": "methyl-2-PG", "description": "Serine synthesis flux from ^14C glucose was measured as described previously (Parry, 1957) with modification. Sub-confluent cells seeded on a 6 cm dish were incubated in complete medium spiked with 40 μCi/ml of D-[U-^14C]-glucose overnight. The incubated cells were lysed with hypotonic lysis buffer (20 mM HEPES (pH 7.0), 5 mM KCl, 1 mM MgCl2, 5 mM DTT, and protease inhibitor cocktail), and the cell lysates were spun down by centrifugation to remove cell debris. The supernatant containing 100 μg of total protein was spotted onto Whatman 3MM paper. One-dimensional chromatogram was run in water saturated phenol, and two-dimentional chromatogram was run in 1-butanol:acetic acid:water solution at the ratio of 100:22:50. L-serine (Sigma) was used as a standard. L-serine dissolved in hypotonic lysis buffer was spotted onto another paper, which was run under the same conditions in parallel with the cell lysate sample. Spots of amino acids were developed by ninhydrin reaction. The spot corresponding to serine was identified based on R^f values of L-serine standard, cut out from the paper, and directly subjected to scintillation counting."}, "[4]": {"conditions": "H1299 cells treated with PGMI-004A"}},
  "note": "“Also recorded” adds a separate entry of the source.",
  "data": [
    {"compound": "O=C1c2ccccc2C(=O)c2c1cc(S(=O)(=O)Nc1ccc(C(F)(F)F)cc1)c(O)c2O", "note": "[PGMI-004A, N-(4-trifluoromethyl)-penyl-3,4-dihydroxy-9,10-dioxo-2-anthracenesulfonamide]", "values": [
      {"measurement": "potency of PGAM1 inhibition in cells", "setting": "[1]", "value": "more potent activity; also recorded: enhanced potency to inhibit PGAM1"},
      {"measurement": "2-PG levels", "setting": "H1299 cells; [4]", "value": "decreased"},
      {"measurement": "3-PG levels", "setting": "H1299 cells; [4]", "value": "increased"},
      {"measurement": "body weight, complete blood counts (CBC) or hematopoietic properties", "setting": "[2]; 100 mg/kg/day for 7 days", "value": "did not result in significant alteration"},
      {"measurement": "histopathological analyses (kidney, lung, liver, spleen)", "setting": "[2]; 100 mg/kg/day intraperitoneally for 7 days, vs vehicle", "value": "did not reveal significant differences; also recorded: no notable differences"},
      {"measurement": "tolerability", "setting": "[2]; 100 mg/kg/day intraperitoneally, chronic injection for 4 weeks", "value": "well-tolerated"}
    ]},
    {"compound": "COC(=O)[C@@H](CO)OP(=O)(O)O", "note": "[methyl-2-PG, methyl ester of D(+)-2-phosphoglyceric acid, reference compound]", "values": [
      {"measurement": "2-PG cellular levels", "setting": "H1299 cells; diverse PGAM1 knockdown cancer cells treated with methyl-2-PG", "value": "increased 2-PG cellular levels"},
      {"measurement": "3-PG concentrations", "setting": "H1299 cells; diverse PGAM1 knockdown cells treated with methyl-2-PG", "value": "decreased 3-PG concentrations"},
      {"measurement": "serine biosynthesis", "setting": "[3]", "value": "rescues the phenotype"}
    ]}
  ]
}
